The values that follow come from patent publication US7803955B2, “Method for preparing 2,5,7,8-tetramethyl-2-(2′-carboxyethyl)-6-acetoxychroman-precursor- α-CEHC precursor” (Institut Neftekhimii I Kataliza Ran, priority 2005, dated 2010).

The conditions of data set [1]: various model oxidative reactions; compared with α-tocopherol, ascorbic acid, Trolox; cited from earlier work.
The conditions of data set [2]: ratio to α-tocopherol; cited from earlier work.
For data set [3] the following is noted: unlike the known diuretics; cited from earlier work.

`CC(=O)Oc1c(C)c(C)c2c(c1C)CCC(C)(CCC(=O)O)O2` (stereo not shown) [(V), 2,5,7,8-tetramethyl-2-(2′-carboxyethyl)-6-acetoxychroman]: the melting point (in general, the temperature, or range, at which the solid turns liquid) fell in the range of 149 to 150 °C.

In the case of `Cc1c(C)c2c(c(C)c1O)CCC(C)(CCC(=O)O)O2` (stereo not shown) [acid (II), 2,5,7,8-tetramethyl-2-(2′-carboxyethyl)-6-hydroxychroman], in data set [1], the “antioxidant activity in vitro” value was “high antioxidant properties comparable with such known preparations as α-tocopherol, ascorbic acid, and the cardioprotective agent Trolox”.

With `CC(=O)Oc1c(C)c(C)c2c(c1C)CCC(C)(CCC[C@H](C)CCC[C@H](C)CCCC(C)C)O2` (stereo partly drawn) [α-tocopheryl acetate], the “vitamin activity relative to non-acetylated α-tocopherol” value in data set [2] is 1.47 times.

Take `Cc1c(O)cc2c(c1C)OC(C)(CCC(=O)O)CC2` (stereo not shown) [γ-CEHC]: in data set [3], the “excretion of sodium ions / potassium ions” value is “exclusively selectively promotes the excretion of sodium ions without affecting potassium ions”.
